Reference: US11547681B2, “N-acylethanolamide derivatives and uses thereof” (ELIEM THERAPEUTICS, INC., priority 2016, dated 2023)

Experiments:
[1] = Plasma stability (37° C., pH 7.4), dog; type: in vitro ADME, Beagle dog; conditions: test article 1 μM, 37° C.
Protocol: (§1) Studies were carried out in mixed-gender human plasma (Lot #GLP530-5), male Sprague-Dawley rat (Lot #RAT297944, RAT313140), male CD-1 mouse (Lot #MSE237700), and male Beagle dog (Lot #BGL87670, BGL82614), collected on sodium heparin. Plasma was adjusted to pH 7.4 prior to initiating the experiments. DMSO stocks were first prepared for the test articles. Aliquots of the DMSO solutions were dosed into 700 μL of plasma, which had been pre-warmed to 37° C., at a final test article concentration of 1 μM. […] Samples were stored at 4° C. until the end of the experiment. After the final time point was sampled, the plate was mixed and then centrifuged at 3,000 rpm for 10 minutes. Calibration standards were prepared in matched matrix. […] Analytical conditions are outlined in Appendix 8-1.
as §1, with “#AS1650-2),” for “#GLP530-5),”, “#RAT297944),” for “#RAT297944, RAT313140),”, “CD-I” for “CD-1”, “#BGL91384),” for “#BGL87670, BGL82614),”, “10-1.” for “8-1.”
Studies were carried out in mixed-gender human plasma (Lot #AS1650-2), male Sprague-Dawley rat (Lot #RAT297944), male CD-1 mouse (Lot #MSE237700), and male Beagle dog (Lot #BGL91384), collected on sodium heparin. Plasma was adjusted to pH 7.4 prior to initiating the experiments. DMSO stocks were first prepared for test articles. […] Samples were stored at 4° C. until the end of experiment. After the final time point was sampled, the plate was mixed and then centrifuged at 3,000 rpm for 10 minutes. Calibration standards were prepared in matched matrix. […] Analytical conditions are outlined in Appendix 13-1.
Studies were carried out in mixed-gender human plasma (Lot #AS 1650-2), male Sprague-Dawley rat (Lot #RAT320835), male CD-1 mouse (Lot #MSE260693), and 6 male Beagle dog (Lot #BGL91384), on sodium heparin. Plasma was adjusted to pH 7.4 prior to initiating the experiments. DMSO stocks were first prepared for the test articles. Aliquots of the DMSO solutions were dosed into 700 μL of plasma, which had been pre-warmed to 37° C., at a final test article concentration of 1 μM. […] Samples were stored at 4° C. until the end of the experiment. After the final time point was sampled, the plate was mixed and then centrifuged at 3,000 rpm for 10 minutes. Calibration standards were prepared in matched matrix. […] Analytical conditions are outlined in Appendix 17-1.

[2] = rat, in vivo, po
Protocol: PEA was also dosed intravenously at 1 mg/kg. Blood samples were collected up to 8 hours post-dose, and PEA and PEA-prodrug plasma concentrations were determined with a qualified LC-MS/MS method. Pharmacokinetic analysis was conducted by a non-compartmental model using Phoenix WinNonlin v.6.4 software.
The IV dosing solution was prepared fresh on the day of dosing at 0.5 mg/mL in a vehicle comprised of 10% solutol HS15, 10% n-methylpyrrolidone (NMP), 10% polyethylene glycol 400 (PEG400), and 70% water. For PO dosing, torpac capsules were loaded with an appropriate amount of PEA, PEA-prodrug, or normast powder. […] The prodrug dose in group 5 was the maximum amount of powder that would fit into a single capsule.
The pharmacokinetics of PEA and the PEA-prodrug were evaluated in fasted male Sprague-Dawley rats. Rats were housed one per cage. Each rat was fitted with a jugular vein cannula (JVC) for blood collection. Rats intended for IV dosing were fitted with an additional JVC for dosing. Each study group was dosing in triplicate. Rats were fasted for a minimum of twelve hours prior to dosing. Food was returned at four hours post dosing. Animals had free access to water throughout the study.
Blood samples (˜300 μL) were collected from the rats via a JVC and placed into chilled polypropylene tubes containing sodium heparin as an anticoagulant, and 30 μL of 0.5 M citric acid. Samples were maintained chilled throughout processing. Blood samples were centrifuged at 4° C. and 3,000 g for 5 minutes. Plasma (˜150 μL) was then transferred to a chilled, labeled polypropylene tube containing 15 μL of 10% formic acid, placed on dry ice, and stored in a freezer maintained at −60° C. to −80° C.
Pharmacokinetic parameters were determined with Phoenix WinNonlin (v6.4) software using a non-compartmental model. Maximum plasma concentrations (C0) after IV dosing were estimated by extrapolation of the first two time points back to t=0. […] Area under the time concentration curve (AUC) was calculated using the linear trapezoidal rule with calculation to the last quantifiable data point, and with extrapolation to infinity if applicable. […] Mean residence time, MRT, was calculated by dividing the area under the moment curve (AUMC) by the AUC. Clearance (CL) was calculated from dose/AUC. Steady-state volume of distribution (Vss) was calculated from CL*MRT (mean residence time). Bioavailability was determined by dividing the individual PO dose normalized AUClast values by the average IV AUClast value. Any samples below the limit of quantitation were treated as zero for pharmacokinetic data analysis.
Measured concentrations of PEA in plasma samples were corrected by subtracting the concentration of PEA measured in the pre-dose samples. […] Any corrected values that were negative are reported as not determined (ND).

[3] = Stability of PEA-prodrug in Sprague-Dawley rat plasma and acidified rat plasma (90 minutes, ice or RT); type: in vitro ADME; conditions: 1 μg/mL
Protocol: The stability of the PEA-prodrug I-9 was assessed in Sprague-Dawley rat plasma containing sodium heparin as the anticoagulant, and in acidified rat plasma containing citric acid and formic acid. The acidified plasma was prepared by collecting Sprague-Dawley rat […] over sodium heparin and adding 100 μL of 0.5 M citric acid per mL of blood. The blood was centrifuged to generate plasma, and then 100 μL of 10% formic acid was added per mL of plasma.
PEA-prodrug was added to each matrix to a final concentration of 1 μg/mL. Triplicate aliquots (50 μL) were immediately collected and added to 150 μL of acetonitrile containing internal standard. The remaining plasma aliquots were split equally. One aliquot was allowed to stand at room temperature while the second was placed on ice. After ninety minutes, triplicate aliquots of each sample were collected and added to acetonitrile. The samples were centrifuged at 13000 rpm for ten minutes, and the resulting supernatant was analyzed using the developed LC-MS/MS method. The peak area response ratios (PARR) of the analyte and internal standard from the incubated samples were then compared to the initial sample to determine the percent PEA prodrug remaining.

CCCCCCCCCCCCCCCC(=O)NCCOC(=O)CCC(=O)OCC(O)CO (centres unmarked) [Compound I-9]
% Remaining of Initial (n = 1), 0 min ([1]; dog plasma, pH 7.4, 0 min): 100%
% Remaining of Initial (n = 1), 15 min ([1]; dog plasma, pH 7.4, 15 min): 8.7%
% Remaining of Initial (n = 1), 30 min ([1]; dog plasma, pH 7.4, 30 min): 12%
% Remaining of Initial (n = 1), 60 min ([1]; dog plasma, pH 7.4, 60 min): 1.2%
% Remaining of Initial (n = 1), 120 min ([1]; dog plasma, pH 7.4, 120 min): <1.0%
half-life at 1 μM ([1]; male, Beagle, dog, plasma, pH 7.4, dog plasma, pH 7.4): 4.7 min
PEA-prodrug in plasma samples [2]: not detectable
% Remaining ([3]; acidified rat plasma (citric and formic acid), RT): 96.0%
% Remaining ([3]; acidified rat plasma (citric and formic acid), ice): 107%
% Remaining ([3]; rat plasma (sodium heparin), RT): 0.203%
% Remaining ([3]; rat plasma (sodium heparin), ice): 73.4%
